T/C data for 18 molecules are collected here from PubChem BioAssay AID328 (DTP/NCI, 2004).

For this experiment, the system named is BDF1 mice, P388 leukemia ip, median survival T/C. Nature of the experiment: NCI In Vivo Anticancer Drug Screen. Data for tumor model P388 Leukemia (intraperitoneal) in B6D2F1 (BDF1) mice. The settings on record: endpoint: median survival time, higher = longer survival. The method, then: The antitumor activity of compounds was measured in mice bearing transplantable tumors. Survival or tumor size were measured and the results are expressed as the measurement made in the treated group (T) divided by the measurement made in the vehicle treated control group (C). The tumor model used in this assay is P388 Leukemia (intraperitoneal) in B6D2F1 (BDF1) mice

The mark [1] stands for this setting: dose: 50.0 mg/kg/injection, schedule: Q01DX009 (ip), vehicle: Klucel (hydroxypropylcellulose) (HPC).
[2] abbreviates: dose: 100.0 mg/kg/injection, schedule: Q01DX009 (ip), vehicle: Klucel (hydroxypropylcellulose) (HPC).
Setting [3] is: dose: 100.0 mg/kg/injection, schedule: Q01DX009 (ip), vehicle: saline with Tween-80.
Setting [4] is: dose: 10.0 mg/kg/injection, schedule: Q01DX009 (ip), vehicle: saline.
Setting [5] is: dose: 50.0 mg/kg/injection, schedule: Q01DX009 (ip), vehicle: saline with Tween-80.
The mark [6] stands for this setting: dose: 200.0 mg/kg/injection, schedule: Q01DX009 (ip), vehicle: saline with Tween-80.

Values joined by “and” are separate entries in the source; they are usually repeats but may differ in a detail not shown here. Equal values may be shown once. Inconclusive results and toxic doses are left out.

On to `COc1ccc(Cc2ccc(O)cc2)cc1`, for which the T/C was 100 % of control (dose: 100.0 mg/kg/injection, schedule: Q04DX003 (ip), vehicle: other); 119 % of control (dose: 200.0 mg/kg/injection, schedule: Q04DX003 (ip), vehicle: other); 119 % of control (dose: 400.0 mg/kg/injection, schedule: Q04DX003 (ip), vehicle: other).
For `O=C(NC(CSC(=O)c1ccccc1)C(=O)O)OCc1ccccc1` (centres undefined), the T/C is, setting by setting: under setting [1], 95 % of control; under setting [2], 95 % of control; (dose: 200.0 mg/kg/injection, schedule: Q01DX009 (ip), vehicle: Klucel (hydroxypropylcellulose) (HPC)) 100 % of control.
Regarding `O=C(CBr)OCCCS(=O)(=O)O`, the T/C reads like this: (dose: 50.0 mg/kg/injection, schedule: Q04DX003 (ip), vehicle: saline) 95 % of control; (dose: 100.0 mg/kg/injection, schedule: Q04DX003 (ip), vehicle: saline) 104 % of control; (dose: 200.0 mg/kg/injection, schedule: Q04DX003 (ip), vehicle: saline) 100 % of control.
`O=C(O)CCCNSc1ccccc1[N+](=O)[O-]`: the T/C under setting [3] is 124 % of control.
Turning to `O=C(O)CCC(=O)O`, the T/C under setting [4] was 101 % of control and 122 % of control and 100 % of control; the T/C (dose: 10.0 mg/kg/injection, schedule: Q01DX009 (ip), vehicle: water) is 111 % of control and 98 % of control; the T/C (dose: 20.0 mg/kg/injection, schedule: Q01DX009 (ip), vehicle: saline) is 105 % of control and 115 % of control and 106 % of control; the T/C (dose: 20.0 mg/kg/injection, schedule: Q01DX009 (ip), vehicle: water) is 117 % of control and 120 % of control; the T/C (dose: 25.0 mg/kg/injection, schedule: Q01DX009 (ip), vehicle: other) is 105 % of control and 120 % of control; the T/C (dose: 40.0 mg/kg/injection, schedule: Q01DX009 (ip), vehicle: saline) was 109 % of control and 108 % of control. Also, the T/C is 124 % of control and 100 % of control (dose: 40.0 mg/kg/injection, schedule: Q01DX009 (ip), vehicle: water); 103 % of control and 102 % of control (dose: 50.0 mg/kg/injection, schedule: Q01DX009 (ip), vehicle: other); 108 % of control and 117 % of control (dose: 80.0 mg/kg/injection, schedule: Q01DX009 (ip), vehicle: saline); 115 % of control and 117 % of control (dose: 80.0 mg/kg/injection, schedule: Q01DX009 (ip), vehicle: water); 102 % of control and 119 % of control (dose: 100.0 mg/kg/injection, schedule: Q01DX009 (ip), vehicle: other); 114 % of control and 110 % of control (dose: 160.0 mg/kg/injection, schedule: Q01DX009 (ip), vehicle: saline). In addition, the T/C is 98 % of control and 124 % of control (dose: 160.0 mg/kg/injection, schedule: Q01DX009 (ip), vehicle: water); 110 % of control (dose: 200.0 mg/kg/injection, schedule: Q01DX009 (ip), vehicle: other); 99 % of control and 115 % of control (dose: 200.0 mg/kg/injection, schedule: Q01DX009 (ip), vehicle: saline).
As to `O=C(Nc1cc(C(F)(F)F)ccc1Cl)c1ccccc1Cl`, the T/C reads like this: (dose: 100.0 mg/kg/injection, schedule: Q04DX003 (ip), vehicle: saline with Tween-80) 100 % of control; (dose: 200.0 mg/kg/injection, schedule: Q04DX003 (ip), vehicle: saline with Tween-80) 104 % of control; (dose: 400.0 mg/kg/injection, schedule: Q04DX003 (ip), vehicle: saline with Tween-80) 113 % of control.
Consider `COC(=O)C1=C(C)NC(=O)NC1c1ccccc1` (centres undefined), for which the T/C is, setting by setting: (dose: 100.0 mg/kg/injection, schedule: Q01DX001 (ip), vehicle: saline with Tween-80) 100 % of control; (dose: 200.0 mg/kg/injection, schedule: Q01DX001 (ip), vehicle: saline with Tween-80) 100 % of control; (dose: 400.0 mg/kg/injection, schedule: Q01DX001 (ip), vehicle: saline with Tween-80) 100 % of control.
In the case of `COc1ccc2c(c1C)CCC1(CO)CC(C)=CCC21` (centres undefined), the T/C runs as follows: (dose: 100.0 mg/kg/injection, schedule: Q01DX001 (ip), vehicle: saline sonified) 90 % of control; (dose: 200.0 mg/kg/injection, schedule: Q01DX001 (ip), vehicle: saline sonified) 90 % of control; (dose: 400.0 mg/kg/injection, schedule: Q01DX001 (ip), vehicle: saline sonified) 86 % of control.
Turning to `CC(=O)C1(O)Cc2c(O)c3c(c(O)c2C(OC2CC(N)C(O)C(C)O2)C1)C(=O)c1ccccc1C3=O` (centres undefined), the T/C runs as follows: (dose: 324.0 micrograms/kg/injection, schedule: Q04DX003 (ip), vehicle: water) 177 % of control; (dose: 540.0 micrograms/kg/injection, schedule: Q04DX003 (ip), vehicle: water) 220 % of control; (dose: 900.0 micrograms/kg/injection, schedule: Q04DX003 (ip), vehicle: water) 116 % of control; (dose: 1500.0 micrograms/kg/injection, schedule: Q04DX003 (ip), vehicle: water) 90 % of control.
Regarding `C/C=C/C(=O)OC1CC(=O)N(C)c2cc(cc(OC)c2Cl)C/C(C)=C/C=CC(OC)C2(O)CC(OC(=O)N2)C(C)C2OC12C` (centres undefined), the T/C was 150 % of control (dose: 0.8 micrograms/kg/injection, schedule: Q01DX009 (ip), vehicle: saline + alcohol); 150 % of control (dose: 1.5 micrograms/kg/injection, schedule: Q01DX009 (ip), vehicle: saline + alcohol); 150 % of control (dose: 3.1 micrograms/kg/injection, schedule: Q01DX009 (ip), vehicle: saline + alcohol); 160 % of control (dose: 6.2 micrograms/kg/injection, schedule: Q01DX009 (ip), vehicle: saline + alcohol); 170 % of control (dose: 12.5 micrograms/kg/injection, schedule: Q01DX009 (ip), vehicle: saline + alcohol); 173 % of control (dose: 25.0 micrograms/kg/injection, schedule: Q01DX009 (ip), vehicle: saline + alcohol). The T/C (dose: 50.0 micrograms/kg/injection, schedule: Q01DX009 (ip), vehicle: saline + alcohol) was 210 % of control; the T/C (dose: 100.0 micrograms/kg/injection, schedule: Q01DX009 (ip), vehicle: saline + alcohol) is 210 % of control; the T/C (dose: 200.0 micrograms/kg/injection, schedule: Q01DX009 (ip), vehicle: saline + alcohol) was 210 % of control.
In the case of `CCCN=C(N)c1ccc(N=C(N)c2ccc(N=C(N)c3ccc(C(N)=NCCC)cc3)cc2)cc1`, the T/C under setting [4] is 154 % of control and the T/C (dose: 15.0 mg/kg/injection, schedule: Q01DX009 (ip), vehicle: saline) is 190 % of control.
Turning to `OC(CC1CCCCN1)c1cc(C(F)(F)F)nc2c(C(F)(F)F)cccc12` (centres undefined), the T/C under setting [5] was 111 % of control.
Take `O=C(NCc1cnccn1)c1ccc([N+](=O)[O-])cc1`: the T/C is, setting by setting: under setting [5], 100 % of control; under setting [3], 94 % of control; under setting [6], 100 % of control; (dose: 400.0 mg/kg/injection, schedule: Q01DX009 (ip), vehicle: saline with Tween-80) 103 % of control.
For `CN(C)c1oc2ccc3ccccc3c2c(=O)c1C#N`, the T/C is 95 % of control under setting [5], 97 % of control under setting [3] and 92 % of control under setting [6].
For the molecule `CCC(CO)NC(=O)/C=C/c1ccccc1Cl` (centres undefined), under setting [6], the T/C was 91 % of control.
Turning to `CCC12CCCN3C(=O)CC(C(=O)CC1)C32` (centres undefined), the T/C reads like this: (dose: 25.0 mg/kg/injection, schedule: Q04DX003 (ip), vehicle: saline sonified) 95 % of control; (dose: 50.0 mg/kg/injection, schedule: Q04DX003 (ip), vehicle: saline sonified) 109 % of control; (dose: 100.0 mg/kg/injection, schedule: Q04DX003 (ip), vehicle: saline sonified) 109 % of control.
As for `CCOC1CC(C)C(C=O)C(C#N)(C#N)C1(C#N)C#N` (centres undefined), the T/C reads like this: (dose: 12.5 mg/kg/injection, schedule: Q01DX001 (ip), vehicle: saline with Tween-80) 100 % of control; (dose: 25.0 mg/kg/injection, schedule: Q01DX001 (ip), vehicle: saline with Tween-80) 109 % of control; (dose: 50.0 mg/kg/injection, schedule: Q01DX001 (ip), vehicle: saline with Tween-80) 106 % of control.
For `CP(C)c1ccccc1`, the T/C by setting is: (dose: 25.0 mg/kg/injection, schedule: Q01DX009 (ip), vehicle: Klucel (hydroxypropylcellulose) (HPC)) 92 % of control; under setting [1], 96 % of control; (dose: 50.0 mg/kg/injection, schedule: Q04DX003 (ip), vehicle: Klucel (hydroxypropylcellulose) (HPC)) 100 % of control; under setting [2], 103 % of control; (dose: 100.0 mg/kg/injection, schedule: Q04DX003 (ip), vehicle: Klucel (hydroxypropylcellulose) (HPC)) 123 % of control.
